The data set in a line: Optical properties (absorbance, emission, extinction coefficient). The format is physicochemical. From the text: Supplementary Figure 3. Det er m inat ion of t he ex t inc t i on c oef f ic i ent of T rp-BO DI PY P LUS in EtOH. V alues pr es ent e d as m eans ±S E M ( n= 6) .
S u p p l emen t ary F i gu re 4 . […]
(also on this page, place not known: 0.0 0.1 0.2 0.3 0.4 0.5 0.6 ε: 87,680 M-1cm-1 R2: 0.98 (µM) Optical density (500 nm) Determination the extinction coefficient Trp-BODIPY Values presented means±SEM (n=6). Wavelength (nm) fluorescence (RFU) Relative Supplementary Figure 4. Representative emission spectra Trp-BODIPY PLUS µM) water (black) and dioxane (green). (n=3).) […]
Sp ectro sco p y mea su rem en ts. O pt ical prop ert ies were me asure d in a Synergy H 1 B ioT ek spect rop hot om et er at t he ind icat ed co ncent rat i ons o n 96 or 38 4-we ll p lat es.
A bs or ba nc e and em is s i on s pec t r a wer e det er m i ned in t he r ange of 400– 700 nm ( ev er y 2 nm). F or liposom e exp erime nt s, phosph at idylc hol ine (P C)-bas ed li posom es wer e pur c has ed f r om Lipos om a, dilut ed in PBS, and t r ans f er r ed int o a blac k f lat -bot t om 96-well pl at e f or opt ical measur ement s. […]
Cel l exp eri men t s. W ork wit h hum an per iph eral b loo d leuk ocyt es comp lie d wit h al l releva nt et hical r egu lat io ns and inf orme d conse nt was obt a ine d. T he st udy prot oco l was approv ed by t he Medica l Regi ona l Et hics Commit t ee ( 21-EMREC - 04 1) at t he Univers ity of Edinb urgh. H uman blo od le ukocytes w ere iso late d from hea lthy volunt e ers. Brief ly, whole b loo d was ant i-c o agu lat ed w it h s odium c it r at e [ 0. 4% ( w/ v ) f inal c onc ent r at io n] and c ent r if ug ed at 350 g for 20 m i n. P lat elet-ric h plasma w as r em ov ed and aut o log ous s er um was ge ner at e d by r ec alc if ic at ion wit h CaC l2 ( 20 m M f inal co ncent rat i on). […] 5 %/ 63%/ 7 2. 9% d is c ont i nuo us gr adi ent s . […] 9 % int er f ac e. […]
HE K29 3 cel l s. Immort alize d huma n embry onic ki dney ce lls HE K 293 w ere gro wn i n DM EM wit hout py r uv at e wit h 4. 5 g L-1 of D-gluc os e, F B S , and penic ill in/ s t r ept om y c i n

As for `CC1=CC(C)=[N+]2C1=C(c1cccc(-c3[nH]c4ccccc4c3C[C@H](NC(=O)OCC3c4ccccc4-c4ccccc43)C(=O)O)c1)c1c(C)cc(C)n1[B-]2(C#N)C#N` [Trp-BODIPY PLUS], the Absorbance maximum wavelength was 500 nm and the Emission maximum wavelength was 515 nm. In addition, the Extinction coefficient (in EtOH, optical density at 500 nm, n=6, fit to Beer's law) is 87,680 M-1cm-1.

Values taken from paper PMC10947197, “Acid‐Resistant BODIPY Amino Acids for Peptide‐Based Fluorescence Imaging of GPR54 Receptors in Pancreatic Islets” (Angewandte Chemie (International Ed. in English), 2023).
